In patent US11040954B1, “CXCR3 receptor agonists” (RECEPTOS LLC, priority 2016, dated 2021):

The molecules below were run against T1, CXCR3 (Homo sapiens, UniProt P49682) (assay: CXCR3 cAMP agonist assay (cAMP Hunter CHOK1 CXCR3 Gi cell line, forskolin-stimulated, HitHunter cAMP detection)). Settings: cAMP Hunter CHOK1 CXCR3 Gi cells, 20 μM forskolin, 30 minutes; read-out: Activity (CXCR3 cAMP agonist assay compound EC50).
T1 construct: host or cells: CHO-K1 (cAMP Hunter CHOK1 CXCR3 Gi cell line)
T1 sequence (P49682 1-368): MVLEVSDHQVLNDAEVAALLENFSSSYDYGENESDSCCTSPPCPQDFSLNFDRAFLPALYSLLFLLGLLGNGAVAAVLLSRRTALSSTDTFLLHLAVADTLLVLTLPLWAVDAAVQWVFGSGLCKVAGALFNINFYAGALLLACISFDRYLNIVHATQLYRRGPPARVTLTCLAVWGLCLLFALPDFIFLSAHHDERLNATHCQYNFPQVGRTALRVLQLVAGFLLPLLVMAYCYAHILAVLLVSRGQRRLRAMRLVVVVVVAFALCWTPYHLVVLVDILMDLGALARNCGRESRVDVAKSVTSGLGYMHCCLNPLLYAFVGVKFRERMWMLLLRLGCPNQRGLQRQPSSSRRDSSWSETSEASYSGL
Format: cell-based
Protocol: The cAMP Hunter™ CHOK1 CXCR3 Gi cell line was purchased from DiscoveRx. Cells were seeded into a 96-well white assay plate at 50,000 cells/well/94 μl assay buffer (Hank's Buffered Saline Solution, 10 mM HEPES, 0.1% fatty acid-free BSA, pH 7.4) and immediately assayed in suspension. Forskolin was added to 20 μM (5 μl of 400 μM stock) simultaneously with a 12-point dose response curve of compound at 0-10 μM (1 μl of 100× stock in 100% DMSO), and cells were incubated for 30 minutes. A cAMP standard curve is run as an assay control. A CXCL11 dose response was included to determine maximum efficacy. Direct detection of cAMP was carried out using the DiscoveRx HitHunter cAMP kit according to manufacturer's instructions, and luminescence was read using a SpectraMax M5 plate reader.

EC50 [nM]	SMILES
50 to 250	COC1CCN(CC[C@H](NC(=O)[C@@H]2Cc3ccccc3CN2C(=O)CCC(=O)c2ccccc2)C(=O)Nc2ccc(Cl)c(C)c2)CC1 [Compound 24-1, (S)—N—((S)-1-((4-chloro-3-methylphenyl)amino)-4-(4-methoxypiperidin-1-yl)-1-oxobutan-2-yl)-2-(4-oxo-4-phenylbutanoyl)-1,2,3,4-tetrahydroisoquinoline-3-carboxamide]
50 to 250	Cc1cc(NC(=O)[C@](C)(CCCCN)NC(=O)[C@@H]2Cc3ccccc3CN2C(=O)CCC(=O)c2ccccc2)ccc1Cl [Compound 4-10]
< 50	NCC[C@H](NC(=O)[C@@H]1Cc2ccccc2CN1C(=O)CCC(=O)c1ccccc1)C(=O)Nc1cccc2c1CCC2 [Compound 2-67]
50 to 250	NCC[C@H](NC(=O)[C@@H]1Cc2ccccc2CN1C(=O)CCC(=O)c1ccccc1)C(=O)Nc1ccc(Cl)cc1F [Compound 2-9]
250 to 500	O=C(CCC(=O)N1Cc2ccccc2C[C@H]1C(=O)N[C@@H](CCN1CCCC(F)(F)C1)C(=O)Nc1ccc2c(c1)CCC2)c1ccccc1 [Compound 23-8]
50 to 250	N#Cc1c(NC(=O)[C@H](CCN)NC(=O)[C@@H]2Cc3ccccc3CN2C(=O)CCC(=O)c2ccccc2)ccc(Cl)c1Cl [Compound 14-26]
50 to 250	NCC[C@H](NC(=O)[C@@H]1Cc2ccccc2CN1C(=O)CCC(=O)c1ccccc1)C(=O)Nc1ccc(Cl)cc1C(F)(F)F [Compound 14-12]
< 50	CC1(C)CCCN1C(=O)CCC(=O)N1Cc2ccccc2C[C@H]1C(=O)N[C@@H](CCN)C(=O)Nc1ccc(Cl)c(Cl)c1F [Compound 15-4]
250 to 500	NCCCC[C@H](NC(=O)[C@@H]1Cc2ccccc2CN1C(=O)CCC(=O)c1ccccc1)C(=O)Nc1ccc(Cl)cc1 [Compound 1-2]
50 to 250	NCC[C@H](NC(=O)[C@@H]1Cc2ccccc2CN1C(=O)CCC(=O)c1ccccc1)C(=O)Nc1ccc(Cl)cc1OC(F)(F)F [Compound 14-23]
50 to 250	CCOc1cccc(C(=O)CCC(=O)N2Cc3ccccc3C[C@H]2C(=O)N[C@@H](CCCCN)C(=O)Nc2ccc(Cl)c(C)c2)c1 [Compound 7-7]
< 50	Cc1c(Cl)ccc(NC(=O)[C@H](CCN)NC(=O)[C@@H]2Cc3ccccc3CN2C(=O)CCC(=O)N2CCCC3(CCC3)C2)c1Cl [Compound 15-51]
50 to 250	NCC[C@H](NC(=O)[C@@H]1Cc2ccccc2CN1C(=O)CCC(=O)c1ccccc1)C(=O)Nc1cc(F)c(Cl)c(Cl)c1 [Compound 27-6]
50 to 250	Cc1cc(Cl)ccc1NC(=O)[C@H](CCCCN)NC(=O)[C@@H]1Cc2ccccc2CN1C(=O)CCC(=O)c1ccccc1 [Compound 1-24]
50 to 250	Cc1c(Cl)ccc(NC(=O)C2(NC(=O)[C@@H]3Cc4ccccc4CN3C(=O)CCC(=O)c3ccccc3)CCNCC2)c1C [Compound 11-4]
50 to 250	CN(C(=O)CCC(=O)N1Cc2ccccc2C[C@H]1C(=O)N[C@@H](CCN)C(=O)Nc1ccc(Cl)c(Cl)c1F)C(C)(C)C [Compound 15-53]
> 500	O=C(CCC(=O)N1Cc2ccccc2CC1C(=O)NC(CCN1CCC(F)CC1)C(=O)Nc1ccc2c(c1)CCC2)c1ccccc1 (racemic) [Compound 23-1, N-(1-((2,3-dihydro-1H-inden-5-yl)amino)-4-(4-fluoropiperidin-1-yl)-1-oxobutan-2-yl)-2-(4-oxo-4-phenylbutanoyl)-1,2,3,4-tetrahydroisoquinoline-3-carboxamide]
250 to 500	Cc1cc(NC(=O)[C@H](CCC2CCN(C(=O)OC(C)(C)C)CC2)NC(=O)[C@@H]2Cc3ccccc3CN2C(=O)CCC(=O)c2ccccc2)ccc1Cl [Compound 17-2]
< 50	NCC[C@H](NC(=O)[C@@H]1Cc2ccccc2CN1C(=O)CCC(=O)c1ccccc1)C(=O)Nc1cc2c(cc1Cl)CCC2 [Compound 2-73]
250 to 500	NCC[C@H](NC(=O)[C@@H]1Cc2ccccc2CN1C(=O)CCC(=O)c1ccccc1)C(=O)Nc1ccc2scnc2c1 [Compound 2-80]
< 50	NCC[C@H](NC(=O)[C@@H]1Cc2ccccc2CN1C(=O)CCC(=O)N1CCc2ccccc2C1)C(=O)Nc1ccc(Cl)c(Cl)c1F [Compound 15-8]
50 to 250	NCC[C@H](NC(=O)[C@@H]1Cc2ccccc2CN1C(=O)CCC(=O)c1ccccc1)C(=O)Nc1ccc2c(c1)OCO2 [Compound 2-63]

EC50 [nM]	SMILES
50 to 250	CS(=O)(=O)NCC[C@H](NC(=O)[C@@H]1Cc2ccccc2CN1C(=O)CCC(=O)N1CCCCC1)C(=O)Nc1ccc(Cl)c(Cl)c1F [Compound 32-1, (S)—N—((S)-1-((3,4-dichloro-2-fluorophenyl)amino)-4-(methylsulfonamido)-1-oxobutan-2-yl)-2-(4-oxo-4-(piperidin-1-yl)butanoyl)-1,2,3,4-tetrahydroisoquinoline-3-carboxamide]
50 to 250	Cc1ccc(NC(=O)[C@H](CCCCN)NC(=O)[C@@H]2Cc3ccccc3CN2C(=O)CCC(=O)c2ccccc2)cc1 [Compound 1-3]
250 to 500	Cc1cc(Cl)ccc1NC(=O)[C@H](CCN)NC(=O)[C@@H]1Cc2ccccc2CN1C(=O)CCC(=O)c1ccccc1 [Compound 2-10]
< 50	O=C(CCC(=O)N1Cc2ccccc2C[C@H]1C(=O)N[C@@H](CCN1CCC(O)CC1)C(=O)Nc1ccc2c(c1)CCC2)c1ccccc1 [Compound 28-1, (S)—N—((S)-1-((2,3-dihydro-1H-inden-5-yl)amino)-4-(4-hydroxypiperidin-1-yl)-1-oxobutan-2-yl)-2-(4-oxo-4-phenylbutanoyl)-1,2,3,4-tetrahydroisoquinoline-3-carboxamide]
50 to 250	COc1cc(C)ccc1NC(=O)[C@H](CCN)NC(=O)[C@@H]1Cc2ccccc2CN1C(=O)CCC(=O)c1ccccc1 [Compound 1-37]
50 to 250	Cc1cc(NC(=O)[C@H](CCCC[N+](C)(C)C)NC(=O)[C@@H]2Cc3ccccc3CN2C(=O)CCC(=O)c2ccccc2)ccc1Cl [Compound 6-3]
50 to 250	Cc1cc(NC(=O)C(CCC2(N(C)C)COC2)NC(=O)[C@@H]2Cc3ccccc3CN2C(=O)CCC(=O)c2ccccc2)ccc1Cl (stereo partly drawn) [Compound 21-1, (3S)—N-(1-((4-chloro-3-methylphenyl)amino)-4-(3-(dimethylamino)oxetan-3-yl)-1-oxobutan-2-yl)-2-(4-oxo-4-phenylbutanoyl)-1,2,3,4-tetrahydroisoquinoline-3-carboxamide]
< 50	Cc1cc(NC(=O)[C@H](CCN)NC(=O)[C@@H]2Cc3ccccc3CN2C(=O)CCC(=O)N2CCC(F)(F)CC2)ccc1Cl [Compound 12-4]
< 50	Cc1cc(NC(=O)[C@H](CNC(=N)N)NC(=O)[C@@H]2Cc3ccccc3CN2C(=O)CCC(=O)c2ccccc2)ccc1Cl [Compound 9-1, (S)—N—((S)-1-((4-chloro-3-methylphenyl)amino)-3-guanidino-1-oxopropan-2-yl)-2-(4-oxo-4-phenylbutanoyl)-1,2,3,4-tetrahydroisoquinoline-3-carboxamide]
< 50	NCC[C@H](NC(=O)[C@@H]1Cc2ccccc2CN1C(=O)CCC(=O)c1ccccc1)C(=O)Nc1cc(Cl)c(Cl)c(Cl)c1 [Compound 14-4]
< 50	Cc1cc(NC(=O)[C@H](CCN)NC(=O)[C@@H]2Cc3ccccc3CN2C(=O)CCC(=O)N2CCN3CCC[C@@H]3C2)ccc1Cl [Compound 12-110]
50 to 250	Cc1cc(NC(=O)[C@H](Cc2ccncc2)NC(=O)[C@@H]2Cc3ccccc3CN2C(=O)CCC(=O)c2ccccc2)ccc1Cl [Compound 3-4]
50 to 250	Cc1cc(NC(=O)[C@H](CCCCN)NC(=O)[C@@H]2Cc3ccccc3CN2C(=O)CCC(=O)c2ccccc2)ccc1C(F)(F)F [Compound 1-28]
< 50	Cc1cc(NC(=O)[C@H](CCN)NC(=O)[C@@H]2Cc3ccccc3CN2C(=O)CCC(=O)N2CCC(C(C)C)C2)ccc1Cl (some centres unmarked) [Compound 12-74]
< 50	[2H]C([2H])([2H])N1CCN(C(=O)CCC(=O)N2Cc3ccccc3C[C@H]2C(=O)N[C@@H](CCN)C(=O)Nc2ccc(Cl)c(C)c2)CC1 [Compound 12-118]
50 to 250	Cc1cc(NC(=O)[C@H](CCN)NC(=O)[C@@H]2Cc3ccccc3CN2C(=O)CCC(=O)N2CCC(F)(F)C2)ccc1Cl [Compound 12-8]
< 50	CC(C)C1CCCN1C(=O)CCC(=O)N1Cc2ccccc2C[C@H]1C(=O)N[C@@H](CCN)C(=O)Nc1ccc(Cl)c(Cl)c1F (some centres unmarked) [Compound 15-10]
50 to 250	Cc1cc(NC(=O)[C@H](CCN)NC(=O)[C@@H]2Cc3ccccc3CN2C(=O)CCC(=O)N2CCN(c3nccs3)CC2)ccc1Cl [Compound 12-108]
250 to 500	COc1cc(F)c(F)cc1NC(=O)[C@H](CCN)NC(=O)[C@@H]1Cc2ccccc2CN1C(=O)CCC(=O)c1ccccc1 [Compound 2-70]
> 500	CS(=O)(=O)C1CCN(C(=O)CCC(=O)N2Cc3ccccc3C[C@H]2C(=O)N[C@@H](CCN)C(=O)Nc2ccc(Cl)c(Cl)c2F)CC1 [Compound 15-13]
> 500	Cc1cc(NC(=O)[C@H](CCN)NC(=O)[C@H]2Cc3ccccc3CN2C(=O)CCC(=O)c2ccccc2)ncc1Cl [Compound 4-17]
< 50	Cc1cc(NC(=O)[C@H](CCN)NC(=O)[C@@H]2Cc3ccccc3CN2C(=O)CCC(=O)N2CC3CCC2C3)ccc1Cl (some centres unmarked) [Compound 12-32]
